Test results taken from patent US20080299062A1, “Use of Oxocarboxylic Acids-Containing Combinations for Deodorization” (priority 2004, published 2008).

Assays:
[1] = Odor of permanently waved hair strands, leave-on method (base: conditioner); conditions: for Odor rating vs blank, Day 1, pH 2-3 / Odor rating vs blank, Day 1, pH 4-5 / Odor rating vs blank, Day 2, pH 2-3 / Odor rating vs blank, Day 2, pH 4-5 / Odor rating vs blank, Day 3, pH 2-3 / Odor rating vs blank, Day 3, pH 4-5 / Odor rating vs blank, Day 4, pH 2-3 / Odor rating vs blank, Day 4, pH 4-5: test substance 0.01 wt. %; for Odor rating vs blank, Day 1, pH 2-3 / Odor rating vs blank, Day 1, pH 4-5: Day 1, wet; for Odor rating vs blank, Day 1, pH 2-3 / Odor rating vs blank, Day 2, pH 2-3 / Odor rating vs blank, Day 3, pH 2-3 / Odor rating vs blank, Day 4, pH 2-3: pH 2-3, each symbol = one test strand; for Odor rating vs blank, Day 1, pH 4-5 / Odor rating vs blank, Day 2, pH 4-5 / Odor rating vs blank, Day 3, pH 4-5 / Odor rating vs blank, Day 4, pH 4-5: pH 4-5, each symbol = one test strand; for Odor rating vs blank, Day 2, pH 2-3 / Odor rating vs blank, Day 2, pH 4-5: Day 2, dry; for Odor rating vs blank, Day 3, pH 2-3 / Odor rating vs blank, Day 3, pH 4-5: Day 3, wet; for Odor rating vs blank, Day 4, pH 2-3 / Odor rating vs blank, Day 4, pH 4-5: Day 4, dry; for odor-reducing action (efficacy), in words: pH 2-3 and pH 4-5, summary of Table 1
Procedure: The test substances were tested on hair that had been freshly permanently waved. To this end, hair braids were cut into 2.5-cm pieces, bleached for 30 minutes and washed with perfume-free shampoo. To obtain fully odorless strands, the strands were then dipped three times into a mixture of isopropanol 25%/ethanol 25%/water 50%. The hair was kept for 24 hours in a conditioning room (20° C. at 85% relative humidity) and then cut to a weight of 2 g. This was followed by an odor test. Ten strands per post-treatment agent to be tested were wound onto rollers (diameter: 13 mm) and kept overnight in the conditioning room (20° C. at 85% relative humidity). The next morning, these strands were subjected to permanent waving.
Ten rollers holding 2 g of hair each were placed in a crystallizing dish and covered twice with 20 g of a commercial wave lotion, the rollers being turned over after the first 20 g to ensure uniform distribution. The rollers were then placed in a drier at 40° C. for 15 min, after which they were rinsed with water for 5 minutes namely for 2 min under running city water and for an additional 3 min by immersing them in water. The hair was then dabbed dry with a paper napkin. Afterward, the fixation was carried out with the aid of a commercial foam fixative. To this end, the rollers were immersed for 3 min in 500 mL of fixing solution. Excess fixing solution was then poured off, and the rollers were allowed to stand for an additional 7 minutes. They were then again rinsed with water for 5 min (see above) and dabbed dry with a paper napkin. Finally, the hair was detached from the roller and placed in a drier at 40° C. for 60 minutes.
To test the efficacy of the compounds as permanent wave post-treatment agents, the zinc salts and the corresponding zinc-free acids alone were incorporated at two different pH values into common cosmetic product bases. Zinc citrate (trizinc dicitrate) made soluble with a slight excess of citric acid was tested as the reference substance for a zinc salt without the odor-influencing counterion. The oxocarboxylic acids were used both as the sodium salts and in the form of their zinc salts. The pH values were then adjusted with citric acid or NaOH.
In the following example, 0.5 mL of a leave-on conditioner was massaged into the freshly permanently waved hair (2 g in each case), and after a contact time of 10 min the odor was evaluated by five test subjects (Table 1). In each case, the odor evaluation was performed on 3 test strands. The average values of the evaluation results are tabulated.
Each symbol stands for one test strand. • ◯=odor indistinguishable from that of blank • +=odor better than that of blank • ++=odor appreciably better than that of blank/odorless

[2] = Odor of permanently waved hair strands, rinse-off method (base: hair-cure agent); conditions: for Odor rating vs blank, Day 1, pH 2-3 / Odor rating vs blank, Day 1, pH 4-5 / Odor rating vs blank, Day 2, pH 2-3 / Odor rating vs blank, Day 2, pH 4-5 / Odor rating vs blank, Day 3, pH 2-3 / Odor rating vs blank, Day 3, pH 4-5 / Odor rating vs blank, Day 4, pH 2-3 / Odor rating vs blank, Day 4, pH 4-5: rinse-off hair-cure agent, 5-min contact, table head 0.01 wt. % (text b103: 0.1 wt. %), each symbol = one test strand; for Odor rating vs blank, Day 1, pH 2-3 / Odor rating vs blank, Day 1, pH 4-5: Day 1, wet; for Odor rating vs blank, Day 2, pH 2-3 / Odor rating vs blank, Day 2, pH 4-5: Day 2, dry; for Odor rating vs blank, Day 3, pH 2-3 / Odor rating vs blank, Day 3, pH 4-5: Day 3, wet; for Odor rating vs blank, Day 4, pH 2-3 / Odor rating vs blank, Day 4, pH 4-5: Day 4, dry
[3] = Various odor tests carried out on permanently waved hair (general statements); conditions: sulfur odor of permanently waved hair; general statement

Compound | Odor rating vs blank, Day 1, pH 2-3 [1] | Odor rating vs blank, Day 1, pH 4-5 [1] | Odor rating vs blank, Day 2, pH 2-3 [1] | Odor rating vs blank, Day 2, pH 4-5 [1] | Odor rating vs blank, Day 3, pH 2-3 [1] | Odor rating vs blank, Day 3, pH 4-5 [1] | Odor rating vs blank, Day 4, pH 2-3 [1] | Odor rating vs blank, Day 4, pH 4-5 [1] | Odor rating vs blank, Day 1, pH 2-3 [2] | Odor rating vs blank, Day 1, pH 4-5 [2] | Odor rating vs blank, Day 2, pH 2-3 [2] | Odor rating vs blank, Day 2, pH 4-5 [2] | Odor rating vs blank, Day 3, pH 2-3 [2] | Odor rating vs blank, Day 3, pH 4-5 [2] | Odor rating vs blank, Day 4, pH 2-3 [2] | Odor rating vs blank, Day 4, pH 4-5 [2] | odor-reducing action (efficacy), in words [1] | odor-reducing effect on permanently waved hair, in words [3] | odor-reducing effect, in words ([2]; lowest concentrations in rinse-off products, applied immediately after permanent wave treatment or up to four days later)
O=C([O-])CC(O)(CC(=O)[O-])C(=O)[O-].O=C([O-])CC(O)(CC(=O)[O-])C(=O)[O-].[Zn+2].[Zn+2].[Zn+2] [Trizinc dicitrate, trizinc dicitrate] | + ∘ ∘ | ∘ + + | ∘ + ∘ | ∘ + + | ∘ ∘ + | ∘ + + | ∘ + ∘ | + + + | ∘ ∘ ∘ | ∘ ∘ + | + ∘ ∘ | ∘ + + | ∘ ∘ + | ∘ + + | ∘ ∘ + | ∘ + + |  |  | 
CC(=O)CCC(=O)O [levulinic acid, 4-oxopentanoic acid] |  |  |  |  |  |  |  |  |  |  |  |  |  |  |  |  | some odor-reducing action in strong acids | effective odor reducer | 
O=CC(=O)[O-].[Na+] [Na glyoxylate] | ∘ + + | ∘ + ∘ | + + ∘ | + + ∘ | ∘ ∘ + | ∘ + + | ∘ + + | + ∘ + | ∘ ∘ ∘ | ∘ ∘ ∘ | + ∘ + | + ∘ + | ∘ ∘ + | + + ∘ | ∘ + + | ∘ + + |  |  | 
CC(=O)C(=O)[O-].[Na+] [Na pyruvate] | + ∘ + | ∘ ∘ + | ∘ + ∘ | ∘ + ∘ | ∘ + + | ∘ + + | ∘ + + | + + ∘ | ∘∘ + | ∘ + + | ∘ + + | ∘ + + | ∘ + + | ∘ + + | ∘ + + | ∘ + + |  |  | 
zinc levulinate [Zn levulinate] | + + + | ++ ++ and ++ | + + + | + + ++ | + + + | ++ ++ and ++ | + + + | + ++ and ++ | + + + | ++ ++ and ++ | + + + | + + + | + + + | + + + | + + + | ++ + ++ | unique in the entire pH range tested | much more intense than that of any other zinc compound | drastic odor-reducing effect
CC(=O)C(=O)[O-].CC(=O)C(=O)[O-].[Zn+2] [Zn pyruvate] | ∘ + ∘ | + + + | ∘ ∘ ∘ | + + + | ∘ ∘ ∘ | ∘ + + | ∘ ∘ ∘ | + + + | ∘ ∘ ∘ | ∘ + ∘ | ∘ ∘ ∘ | + ∘ + | ∘ ∘ ∘ | ∘ + + | ∘ ∘ ∘ | + + + |  |  | 
O=CC(=O)[O-].O=CC(=O)[O-].[Zn+2] [Zn glyoxylate] | ∘ + + | + ∘ ∘ | ∘ ∘ ∘ | ∘ + + | ∘ ∘ + | + ∘ + | ∘ ∘ + | + + ∘ | ∘ ∘ ∘ | ∘ + + | ∘ ∘ ∘ | + ∘ + | ∘ ∘ + | + + ∘ | ∘ ∘ + | ∘ + + |  |  | 
CC(=O)CCC(=O)[O-].[Na+] [Na levulinate] | + + + | + ∘ + | + + + | + ∘ + | ∘ + + | + + ∘ | + + + | + + + | + + + | + ∘ + | + + ∘ | + ∘ ∘ | ∘ + + | + ∘ ∘ | ∘ ∘ + | + ∘ ∘ |  |  | 
